The values below come from patent US8067432B2, “Liposomal, ring-opened camptothecins with prolonged, site-specific delivery of active drug to solid tumors” (University of Kentucky Research Foundation, priority 2008, dated 2011).

The conditions of series [1]: compared with FDA approved camptothecin analogs (e.g., Camptosar and Hycamtin); cited from earlier work.
A short description of series [2]: Lactone/carboxylate form and lactone half-life in plasma. Type of series: in vitro ADME, rat.
Series [3] is described as follows: Lactone/carboxylate equilibrium in aqueous solution at physiological pH. Type of series: physicochemical. The note with it: physiological pH (7.4).

With `CC[C@@]1(O)C(=O)OCc2c1cc1n(c2=O)Cc2c-1nc1ccc(O)cc1c2[Si](C)(C)C(C)(C)C` [DB-67, 7-t-butyldimethylsilyl-10-hydroxycamptothecin], the “Potency in in vitro cytotoxicity assays” value in series [1] is “at least comparable potency”.

As to `CC[C@@]1(O)C(=O)OCc2c1cc1n(c2=O)Cc2cc3ccccc3nc2-1` [camptothecin], the “Fraction in lactone (active) form” value in series [2] (in plasma) was around 30%. Moreover, the half-life in series [2] (rat plasma) was around 40 min. Also, the “Fraction in the carboxylate form” value in series [3] is listed as “approximately 70%”.
